Assay results from patent publication US20240082342A1, “PEPTIDE THERAPEUTICS FOR INCREASING LUNG CELL VIABILITY” (BOARD OF REGENTS, THE UNIVERSITY OF TEXAS SYSTEM, priority 2018, published 2024).
“Also recorded” adds a separate entry of the source.

Experiments:
[1] = tested on: A2ECs treated with IL-17A; assay: A2ECs exposed to IL-17A in vitro; type: cell-based, mouse; conditions: for IL-17A-induced p53 and PAI-1 expression, and apoptosis: A2ECs from WT mice, IL-17A 100 ng/ml
Description: FIGS. 49A-49B show the role of IL-17A in PTS-induced p53, PAI-1 expression, and apoptosis in A2ECs. (A) IL-17A^−/− mice resist PTS-induced p53 expression and apoptosis in A2ECs. Mice were kept in ambient AIR or exposed to 20 weeks of PTS. A2ECs isolated from WT and IL-17A^−/− mice in AIR or exposed to PTS were analyzed for acetylated/total p53, Sirt1 and activated caspase-3 to assess apoptosis by Western blotting. (B) CSP inhibits IL-17A-induced p53 and PAI-1 expression and apoptosis in A2ECs in vitro. A2ECs isolated from WT mice were treated with PBS or IL-17A (100 ng/ml) in the presence or absence of CSP or control peptide, CP for 24 h in culture dishes. A2EC lysates were immunoblotted for p53, PAI-1, Cl./total caspase-3 and β-actin. WT mice exposed to IL-17A (FIG. 48D) and PTS (FIG. 46A) induce p53 acetylation and Cav1 expression, while inhibiting Sirt1 in A2ECs.
FIGS. 58A-58B show a 7-amino acid fragment of CSP, CSP7 Inhibits IL-17A-induced A2EC apoptosis. (A) Fragments of CSP were synthesized as shown. (B) A2ECs were treated with CSP or its fragments, or CP, 2 h after exposure of cells to IL-17A. A2EC lysates were immunoblotted for acetylated/total p53 and active/total caspase-3 24 h after IL-17A exposure. β-actin levels were evaluated to assess equal loading.
Increased p53 and apoptosis in A2ECs of mice exposed to PTS or IL-17A provided evidence that PTS acts by increasing IL-17A. To confirm that increased IL-17A contributes to the induction of p53 and PAI-1 expression, and apoptosis in A2ECs during PTS-induced lung injury, IL-17A-deficient mice were exposed to 20 weeks of PTS and control mice were kept in ambient air. A2ECs were tested for p53^AC, p53 and Sirt1 expression, and apoptosis. The responses were compared with changes in A2ECs isolated from WT mice exposed to 20 weeks of PTS or AIR. There was marked induction of p53^AC and p53 levels, and apoptosis with parallel suppression of Sirt1 expression in WT mice exposed to 20 weeks of PTS. […] To confirm mitigation of PTS induced lung injury by CSP or CSP7 involves suppression of IL-17A-induced p53, PAI-1 and apoptosis, A2ECs isolated from WT mice were next treated with IL-17A (100 ng/ml) with or without CSP, CSP7 or CP. Control cells were treated with vehicle (PBS) alone. The A2EC lysates were tested for p53 and p53-mediated downstream induction of PAI-1, and apoptosis. […] Further, induction of miR-34a increased p53 and apoptosis in A2ECs without exposure to tobacco smoke, while inhibition of miR-34a using miR-34a antisense (miR-34a-AS) reduced cigarette smoke induced p53 expression and apoptosis. Results of both in vitro and in vivo experiments support an intricate link between miR-34a, p53^AC, p53 and p53-mediated induction of PAI-1 expression, and A2EC apoptosis during PTS lung injury.

[2] = tested on: A2Cs of WT mice exposed to tobacco smoke; assay: Chronic passive tobacco smoke (20 weeks) lung injury in WT mice, A2C telomere analyses; type: in vivo, mouse; conditions: 20 weeks smoke
Description: Relative telomere length was also analyzed by qPCR analysis of the genomic DNA as described by Callicott R J et al., (Comp Med 2006; 56:17-22) and Cawthon RM (Nucleic Acids Res 2002; 30:e47-e47). The […] gene was served as the control.
To test the effect of chronic TS exposure induced lung injury, these mice were exposed to passive TS from 40 research cigarettes over a 4 h period 5 days/week for 20 weeks (˜90 mg/m3 total solid particulates) using a mechanical smoking chamber (Teague Enterprises, Davis, CA) as described earlier. (Bhandary et al, 2015). Control mice were kept in ambient air. After sixteen weeks of daily passive TS exposure, mice with TS exposure injury were treated with CSP7 at a dosage of 1.5 mg/kg body weight daily 5 days/week for the next four weeks. These mice were continued with daily exposure of 4 h of TS during CSP7 treatment. At the end of the experiment (after 20 weeks of TS exposure), the mice were euthanized, and lungs were utilized for further analyses. To expand the local delivery options of CSP7 to directly treat the damaged lung by air-jet milling for dry powder inhalation (DPI). Mice exposed to TSE were treated with CSP7 using a rotating brush generator for 15 min daily for 7 days. Fourteen days later, […] were subjected to daily inhalation of micronized CSP7 (0.05 mg/kg/d) DP through air-jet-milling for seven consecutive days using a rotating brush exposure system. The rotating brush exposure system gave a consistent minimal chamber concentration of 0.1 mg/L. In order to match dosing of DP inhalation, animal exposure times were adjusted to approximately 15 minutes and an estimated dose of 0.05 mg/kg/d or 1.00 microgram/lung was administered. […]
Measurement of terminal restriction fragment (telomeric) length. For the determination of telomeric length, the TeloTTAGGG Telomere Length Assay Kit (Roche Diagnostics GmbH) was used. Briefly, genomic DNA was isolated and digested with Hinf1/Rsa. The digested DNA fragments were then separated by electrophoresis on agarose gel followed by Southern blot transfer. The membrane was then hybridized with a telomere specific digoxigenin (DIG)-labelled probe, incubated with anti-DIG alkaline phosphatase, and documented with chemiluminescence detection in gel-doc unit (Bio-Rad Laboratories). Telomeric length was identified by comparing with the pre-labelled molecular weight marker. The relative telomere length was calculated according to the protocol provided. In addition, relative telomere length was analyzed by qPCR analysis of the genomic DNA. (Cawthon, Nucleic Acids Res 2002, 30:e47-e47; Alder et al, Proc Natl Acad Sci USA 2015, 112:5099-5104.) The 36B4 gene was served as the control.

Row | Substance | IL-17A-induced p53 and PAI-1 expression, and apoptosis [1] | IHC of lung sections for TRF2, p53, PAI-1, TRF1 [2] | SIAH-1 expression in A2Cs [2] | TRF2 and TERT expression in A2Cs [2] | p53, cleaved caspase-3 and β-galactosidase expression in A2Cs (Western blot) [2] | TERT enzyme activity (TRAPeze assay) ([2]; vs CP group) | relative telomere length of A2Cs (qPCR), telomere shortening ([2]; vs control peptide CP) | p53 and caspase-3 activation ([1]; A2ECs + IL-17A, CSP deletion fragments)
1 | DGIWKASFTTFTVTKYWFYR (listed as Homo sapiens) [CSP, 20 residue caveolin-1 scaffolding domain peptide] | inhibited IL-17A-induced p53 and PAI-1 expression, and apoptosis | – | – | – | – | – | – | –
2 | FTTFTVT (listed as Homo sapiens) [CSP7, heptapeptide fragment of the caveolin-1 scaffolding domain peptide CSP] | inhibited IL-17A-induced p53 and PAI-1 expression, and apoptosis | restoration of TRF2 expression with reduction in p53 and PAI-1 expression | Downregulation of SIAH-1 was significantly more; also recorded: markedly downregulated | restoration of TRF2 and TERT expression | significant decrease; also recorded: markedly suppressed | significantly higher | significant resistance in telomere shortening | inhibited p53 and caspase-3 activation
3 | WGIDKAFFTTSTVTYKWFRY [CP, scrambled control peptide with the same amino acid composition as CSP, reference compound] | – | – | still showed elevated p53 and SIAH-1 | – | – | – | – | –
